This assay concerns the target T1, Kinase A and Spo0F (Bacillus subtilis, UniProt P16497).
T1 construct: made in house; host or cells: recombinant E. coli
T1 sequence (P16497 1-606): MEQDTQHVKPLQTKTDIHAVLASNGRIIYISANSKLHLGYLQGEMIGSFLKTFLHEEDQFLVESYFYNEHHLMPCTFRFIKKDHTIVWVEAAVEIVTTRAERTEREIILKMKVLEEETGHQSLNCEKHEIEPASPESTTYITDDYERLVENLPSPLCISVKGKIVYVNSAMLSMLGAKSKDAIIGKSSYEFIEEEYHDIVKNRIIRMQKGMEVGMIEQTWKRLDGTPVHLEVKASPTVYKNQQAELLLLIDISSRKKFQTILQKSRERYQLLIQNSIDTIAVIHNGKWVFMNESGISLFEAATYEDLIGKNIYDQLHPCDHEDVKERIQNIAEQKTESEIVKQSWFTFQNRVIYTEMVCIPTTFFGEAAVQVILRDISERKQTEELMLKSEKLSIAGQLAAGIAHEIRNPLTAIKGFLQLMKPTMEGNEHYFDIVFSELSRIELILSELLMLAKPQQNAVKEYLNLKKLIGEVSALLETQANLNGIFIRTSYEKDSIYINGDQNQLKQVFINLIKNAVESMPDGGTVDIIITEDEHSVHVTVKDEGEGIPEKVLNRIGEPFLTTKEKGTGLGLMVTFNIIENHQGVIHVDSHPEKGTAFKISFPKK
Nature of the assay: Autophosphorylation of Kinase A and Transphosphorylation of Spo0F Assay (HPK in vitro assay). Format: biochemical. As to the method:
Autophosphorylation of Kinase A and Transphosphorylation of Spo0F Assay
To study the effect of the compounds of the present invention on the signal transduction process in bacteria, the inhibiting effect of the compounds on the sporulation operon proteins Kinase A and Spo0F was examined. Specifically, the inhibition of autophosphorylation of Kinase A and the transphosphorylation of Spo0F was determined in the following assays. The Spo0F response regulator is the primary substrate for phosphorylation by the protein kinase, Kin A, involved in the sporulation process in bacteria. See D. Burbulys, K. A. Trach, J. A. Hoch, Cell, 64, 545-552 (1991). Spo0F and KinA were prepared from recombinant E. coli overexpressing the proteins (J. Cavanagh et al, Amino Acids, 6, 131-140 (1994) and references therein).
The following stock reagents were either prepared and used promptly or stored at the indicated temperature:
8×Salts: 2 M KCl (5 mL), 1 M MgCl2 (800 mL), 1 M CaCl2 (100 mL), 10 mg/mL phenylmethylsulfonyl fluoride (200 mL), 1 M dithioreitol (50 mL), 0.25 M Na2 EDTA (32 mL) and H2 O 3.82 mL (-20° C.)
5×Loading Dye: 0.5M TRIS-HCl, pH 6.8 (7.5 mL), 10% SDS (2 mL) 0.1% bromophenol blue (0.5 mL), 100% glycerol (3 mL) and 12.5 M 2-mercaptoethanol (0.3 mL)
1-1.3 mg/mL KinA: 15 mM TRIS-HCl, pH 8.0, 6 mM KCl; 4 mM 2-mercaptoethanol;40% glycerol (-20° C.)
1 mg/mL Spo0F: 17.5 mM TRIS-HCl, pH 8.0; 0.7 mM KCl; 0.7 mM MgCl2; 0.7 mM CaCl2; 5 mM 2-mercaptoethanol; 30% glycerol (-20° C.)
5% Stacking Gel: 40% 29:1 acrylamide:bis acrylamide (1.25 mL), 0.5 M TRIS-HCl, pH 6.8 (2.5 mL), 10% SDS (0.1 mL), D-H2 O (6.15 mL) 10% ammonium persulfate (100 mL) and TEMED (25 mL)
SDS Running Buffer: TRIS-BASE (3.02 g), glycine (14.4 g), SDS (1 g), D-H2 O (to 1 L)
The reaction mixture was prepared from 8×Salts (87 μL), 1M TRIS, pH 8 (118 μL), 50% glycerol (63 μL), Spo0F (14.1 μL) and KinA (7.0 μL). Microcentrifuge tubes were charged with the reaction mixture (18.5 μL) and a 1.0 mM solution of the test compound in 5% DMSO (18.5 μL), and incubated for 15 min on ice. 100 mM ATP solution (3.0 μl, containing 625 μCi [^32 P]ATP) was added, and the mixture left for 10 minutes at room temperature. The reaction was quenched with 5× loading dye (10 μL per tube) and the samples were loaded on a prepared 5% Stacking Gel, or stored on dry ice until ready for use. The prepared wells were filled with SDS Running Buffer, samples were loaded into the wells, and 80 volts were applied to the gel until the dye front reached the bottom of the stacking gel. The voltage was then increased to 250 volts until electrophoresis was complete. Radioactive bands in the gel corresponding to phosphorylated KinA and Spo0F were imaged and quantitated with a phosphoimager.
If either enzyme was inhibited (as evidenced by the absence of labelled protein in the developed gel), an IC50 was calculated by running the assay with a range of inhibitor concentrations from 1 to 500 μM. After electrophoresis of the reaction mixtures, percent inhibition was determined by measuring the concentration of radioactive phosphorus with a phosphoimager and calculating the values using a software program (BioRad Molecular Analyst).

The mark [1] stands for this setting: Table 1, KinA/Spo0F phosphorylation, in µM.
Where [2] appears, read: Table 4, KinA/Spo0F phosphorylation, read-out: IC50.
The mark [3] stands for this setting: Table 1, KinA/Spo0F phosphorylation, read-out: IC50.
The mark [4] stands for this setting: Table 2, KinA/Spo0F phosphorylation, in µM.
Setting [5] is: Table 6, KinA/Spo0F phosphorylation, in µM.

pIC50: −log10 of the molar value. Like-named read-outs stand apart in the source and are kept apart here.

`CCC(C)(C)c1ccc(-c2nc3ccc(C(=N)N)cc3[nH]2)cc1` [Example 8] registered an IC50 under setting [1] of 37.6.
On the same count and under the same terms, under `N=C(N)c1ccc2nc(-c3ccc(C=Cc4ccccc4)cc3)[nH]c2c1` [Example 13] stands 21.5.
Turning to `N=C(N)c1ccc2nc(-c3cc4c5c(c3O)CCCN5CCC4)[nH]c2c1` [Example 77], the IC50 under setting [2] is recorded as 18.5 µM.
Under setting [1], `CCN(CC)c1ccc(-c2nc3ccc(C(=N)N)cc3[nH]2)c(O)c1` [Example 38] displayed an IC50 of 51.
For the molecule `CC(C)(C)c1ccc(O)c(-c2nc3ccc(C(=N)N)cc3[nH]2)c1` [Example 35], the negative-log IC50 (pIC50) under setting [3] was 4.19.
On the same count and under the same terms, with `N=C(N)c1ccc2nc(-c3ccccc3O)[nH]c2c1` [Example 27] the figure was 3.33.
In turn, `CCOC(=O)c1ccc(Oc2ccc(-c3nc4ccc(C(=N)N)cc4[nH]3)cc2)cc1` [Example 52] returned an IC50 under setting [4] of 56.
`CC(C)(C)c1cc(-c2nc3ccc(CN)cc3[nH]2)c(O)c(C(C)(C)C)c1` [Example 91] gave an IC50 under setting [5] of 4.
For the molecule `N=C(N)c1ccc2nc(-c3ccc(Oc4c([N+](=O)[O-])cc(C(F)(F)F)cc4[N+](=O)[O-])cc3)[nH]c2c1` [Example 45], under setting [1], the IC50 is 28.
With `N=C(N)c1ccc2nc(-c3ccc(Oc4ccc(Cl)cc4[N+](=O)[O-])cc3)[nH]c2c1` [Example 49], under setting [4], the IC50 was determined as 29.2.
On the same count and under the same terms, with `COc1cc(Oc2ccc(-c3nc4ccc(C(=N)N)cc4[nH]3)cc2)cc(OC)c1OC` [Example 53] the figure was 28.7.
Regarding `c1ccc(Oc2ccc(-c3nc4ccc(C5=NCCN5)cc4[nH]3)cc2)cc1` [Example 83], the IC50 under setting [5] is on record as 112.4.
As to `N=C(N)c1ccc2nc(-c3ccc(C(F)(F)F)cc3)[nH]c2c1` [Example 3], under setting [1], the IC50 was determined as 169.
Turning to `N=C(N)c1ccc2nc(-c3ccc(Oc4ccccc4)cc3)[nH]c2c1` [Example 48], the negative logarithm of the IC50 (pIC50) (Table 2, KinA/Spo0F phosphorylation, read-out: IC50) is 4.38.
Molecule `N=C(N)c1ccc2nc(-c3ccc(NCc4ccccc4)cc3)[nH]c2c1` [Example 22] showed an IC50 under setting [1] of 222.
Under setting [4], `N=C(N)c1ccc2nc(-c3ccc(Oc4ccc(N)cc4)cc3)[nH]c2c1` [Example 51] yielded an IC50 of 140.6.
Under setting [1], `N=C(N)c1ccc2nc(-c3cc(OCc4ccccc4)cc(OCc4ccccc4)c3)[nH]c2c1` [Example 6] returned an IC50 of 15.9.
The molecule `N=C(N)c1ccc2[nH]c(-c3ccc(Oc4ccc(Cl)cc4)cc3)nc2c1` [Example 59] returned an IC50 under setting [4] of 13.9.
Same read-out and setting: with `N=C(N)c1ccc2nc(-c3ccc(Oc4ccc([N+](=O)[O-])cc4)cc3)[nH]c2c1` [Example 50] the figure was 31.7.
Regarding `CC(C)(C)c1ccc(Oc2cccc(-c3nc4cc(C(=N)N)ccc4[nH]3)c2)cc1` [Example 68], under “Table 3, KinA/Spo0F phosphorylation, read-out: IC50”, the IC50 was determined as 31.6 µM.
Turning to `N=C(N)c1ccc2nc(-c3cc(-c4ccccc4)cc(-c4ccccc4)c3)[nH]c2c1` [Example 21], the IC50 under setting [1] was 31.
Still for that read-out and setting: with `N=C(N)c1ccc2nc(-c3cc(Br)cc(Br)c3O)[nH]c2c1` [Example 32] the figure was 51.1.
With `N=C(N)c1ccc2nc(-c3ccc(Oc4ccc([N+](=O)[O-])c([N+](=O)[O-])c4)cc3)[nH]c2c1` [Example 57], under setting [4], the IC50 was determined as 31.6.
With `CC(C)(C)c1cc(-c2nc3ccc(C4=NCCN4)cc3[nH]2)c(O)c(C(C)(C)C)c1` [Example 85], the IC50 under setting [5] was 4.
In the case of `N=C(N)c1ccc2nc(-c3ccc4c(c3)Cc3ccccc3-4)[nH]c2c1` [Example 72], the IC50 under setting [2] amounted to 64.3 µM.
On the same count and under the same terms, with `CN1c2ccccc2C(C)(C)C12C=Cc1cc(-c3nc4ccc(C(=N)N)cc4[nH]3)ccc1O2` (stereo not drawn) [Example 78] the figure was 114 µM.
`N=C(N)c1ccc2nc(-c3ccc(Oc4ccc5[nH]cnc5c4)cc3)[nH]c2c1` [Example 80] returned an IC50 (Table 5, KinA/Spo0F phosphorylation, in µM) of 94.
For `COc1cc(OC)cc(Oc2ccc(-c3nc4ccc(C(=N)N)cc4[nH]3)cc2)c1` [Example 55], the IC50 under setting [4] is given as 59.2.
`N=C(N)c1cc([N+](=O)[O-])c2[nH]c(-c3ccc(Oc4ccccc4)cc3)nc2c1` [Example 61] yielded an IC50 under setting [4] of 58.
For the molecule `CC(C)(C)c1cc(-c2nc3ccc(C(=N)N)cc3[nH]2)c(OCC(=O)O)c(C(C)(C)C)c1` [Example 42], under setting [1], the IC50 was determined as 199.
The same measure, in the same setting: with `N#CCCN(CCC#N)c1ccc(-c2nc3ccc(C(=N)N)cc3[nH]2)cc1` [Example 25] the figure was 35.6; with `N=C(N)c1ccc2nc(-c3ccc(OCc4ccccc4)cc3)[nH]c2c1` [Example 15], 60.8.
For the molecule `N=C(N)c1ccc2nc(-c3cc4c5c(c3)CCCN5CCC4)[nH]c2c1` [Example 76], under setting [2], the IC50 is on record as 85 µM.
Under setting [1], `CC(C)(C)c1ccc(-c2nc3ccc(C(=N)N)cc3[nH]2)cc1` [Example 10] returned an IC50 of 70.6.
For the molecule `CC(C)(C)c1cc(-c2nc3ccc(C(=O)O)cc3[nH]2)c(O)c(C(C)(C)C)c1` [Example 89], the negative logarithm of the IC50 (pIC50) (Table 6, KinA/Spo0F phosphorylation, read-out: IC50) was 4.07.
As to `N=C(N)c1ccc2nc(-c3cc(I)c(O)c(I)c3)[nH]c2c1` [Example 18], the IC50 under setting [1] was 254.
The same measure, in the same setting: with `COc1cc(OC)c(-c2nc3ccc(C(=N)N)cc3[nH]2)cc1Br` [Example 28] the figure was 66.
For the molecule `COc1c(-c2nc3ccc(C(=N)N)cc3[nH]2)cc(C(C)(C)C)cc1C(C)(C)C` [Example 29], the pIC50 under setting [3] is 4.12.
As for `N=C(N)c1ccc2nc(-c3cc(-c4ccccc4)cc(-c4ccccc4)c3O)[nH]c2c1` [Example 39], the IC50 under setting [1] is listed as 23.

In general, pIC50 refers to the negative decadic logarithm of the IC50, by convention in mol/L.

The values above are taken from US5942532A, “2-substituted phenyl-benzimidazole antibacterial agents” (Ortho Pharmaceutical Corporation, priority 1997, dated 1999).
